One test has as its system soil consortia cultures. As to the kind of experiment: 16S microbiome analysis of soil cultures grown in nitrogen free media. It counts as cell-based. The settings on record: Alpha soil culture, 25 ug/mL, 72 h, vs control. On the procedure: 16S microbiome analysis was performed on soil-inoculated cultures grown in nitrogen free media in order to compare the effects of AB09 treatment vs control. […] The increased abundance of these diazotrophs in response to AB09 is consistent with the increased nitrogenase activity observed in Table 1 for Alpha soil. […] Known nitrogen fixing bacteria are indicated with an asterisk (*). Soil inoculated cultures (from Alpha Ag soil culture from Table 1) experience an increase in the relative abundance of diazotrophs when treated with AB09. Soil from agricultural areas was air dried and sieved with a 2 mm sieve. Five hundred milligrams of dried, sieved soil was added to 50 mL of nitrogen free media (Burks-N) in a 250 mL baffled flask. AB09 was added to 25 ug/mL and water was added in equivalent amounts for controls. Flasks were topped with a foam plug and incubated at 30 C, shaking at 100 rpm. DNA was extracted from 250 ul of the soil culture after 72 h of growth using the Qiagen PowerSoil Pro Kit (Cat No. 47014). DNA was checked on a gel and Qubit for quality and concentration, respectively. Ten nanograms of DNA was used in the 16S barcoding kit (SQK-RAB204) with the MinION sequencer. Fastq files from MinKnow were uploaded to Epi2Me and the 16S Oxford Nanopore Technologies kit (SQK-RAB204) was selected. […] Read counts were normalized to the total number of reads with an identified barcode.

A short description of test [1]: Field trial of soil phosphate depletion on Iowa farmland. It counts as in vivo. The following applies: Iowa field plots, vs untreated plots. The method, then: Available soil phosphate was measured at the beginning of the growing season (Pre VT) and at the end of the growing season (Post VT).
The solubilizing activity of AB09 was measured in field trials on Iowa farmland. Over the course of a growing season, plants pull available phosphate from the soil, resulting in lower levels at the end of the season versus at the beginning. This phosphate depletion can be measured with standard soil tests.

For another test, the system named is Bradyrhizobium japonicum. Briefly: RNASeq gene expression in Bradyrhizobium japonicum. It counts as cell-based. On the procedure:
Expression levels for all genes in a nitrogen fixing bacteria (Bradyrhizobium japonicum) were measured in the presence or absence of AB09 using Illumina RNASeq technology.

Entries after “also recorded” stand apart in the source; their conditions may differ.

As for `CC1=CC(Oc2c(C)occc2=O)OC1=O` (stereo not drawn) [AB09, maltol lactone], the “abundance of nitrogen fixing bacteria Azotobacter chroococcum and Pseudomonas stutzeri” value with soil consortia cultures was “increased the abundance”. In test [1], the “soil phosphate depletion over the growing season (pre VT to post VT)” value is “less phosphate depletion; also recorded: significantly reduced”. Besides, the “gene expression (Illumina RNASeq) in presence vs absence of AB09” value in the test on Bradyrhizobium japonicum is “induced genetic regulators and pathways for nitrogen fixation and for microaerophilic growth”.
